Experimental data from ChEMBL document CHEMBL1153291, “Synthesis and structure-activity relationships of novel benzofuran farnesyltransferase inhibitors” (Bioorg Med Chem Lett, 2009).

Columns and labels:
[1] = target: Protein farnesyltransferase (Homo sapiens, UniProt P49354+P49356); assay: Inhibition of human FTase; assay type: protein-complex assay
QG-56 [2] = assay: Antiproliferative activity against human QG56 cells; assay type: functional, cell-based
[3] = AUC (0 to 24 hrs) in mouse at 25 mg/kg, iv; assay type: ADME, organism-based; set-up: time < 24 hr, dose 25 mg/kg, route intravenous; conditions: plasma
[4] = Half life in mouse at 25 mg/kg, iv; assay type: ADME, organism-based; set-up: dose 25 mg/kg, route intravenous; conditions: in vivo
[5] = Cmax in mouse at 25 mg/kg, po; assay type: ADME, organism-based; set-up: dose 25 mg/kg, route oral; conditions: in vivo
[6] = AUC (0 to 24 hrs) in mouse at 25 mg/kg, po; assay type: ADME, organism-based; set-up: time < 24 hr, dose 25 mg/kg, route oral; conditions: plasma
[7] = Apparent oral clearance in mouse at 25 mg/kg, po; assay type: ADME, organism-based; set-up: dose 25 mg/kg, route oral; conditions: in vivo
[8] = Half life in mouse at 25 mg/kg, po; assay type: ADME, organism-based; set-up: dose 25 mg/kg, route oral; conditions: in vivo
[9] = Oral bioavailability in mouse at 25 mg/kg; assay type: ADME, organism-based; conditions: in vivo
[10] = AUC (0 to 24 hrs) in mouse at 100 mg/kg, po; assay type: ADME, organism-based; set-up: time < 24 hr, dose 100 mg/kg, route oral; conditions: plasma
[11] = Apparent oral clearance in mouse at 100 mg/kg, po; assay type: ADME, organism-based; set-up: dose 100 mg/kg, route oral; conditions: in vivo
[12] = Half life in mouse at 100 mg/kg, po; assay type: ADME, organism-based; set-up: dose 100 mg/kg, route oral; conditions: in vivo
[13] = Oral bioavailability in mouse at 100 mg/kg; assay type: ADME, organism-based; conditions: in vivo
QG-56 [14] = assay: Antitumor activity against human QG56 cells xenografted in mouse assessed as reduction of tumor volume at 200 mg/kg, po administered 5 times a week for 2 weeks; assay type: functional, organism-based; set-up: dose 200 mg/kg
QG-56 [15] = assay: Toxicity in mouse xenografted with human QG56 cells assessed as reduction of body weight loss at 200 mg/kg, po administered 5 times a week for 2 weeks; assay type: functional, organism-based; set-up: dose 200 mg/kg
[16] = Cmax in mouse at 100 mg/kg, po; assay type: ADME, organism-based; set-up: dose 100 mg/kg, route oral; conditions: in vivo

Compound | IC50 [1] | IC50 (QG-56 [2]) | also measured
Cn1cncc1C(O)(c1ccc(C(=O)O)cc1)c1cc2cc([N+](=O)[O-])cc(-c3ccccc3)c2o1 (racemic) | 850 nM | > 10000 nM | –
Cn1cncc1C(O)(c1ccc(C(=O)OC(C)(C)C)cc1)c1cc2cc([N+](=O)[O-])cc(-c3ccccc3)c2o1 (racemic) | > 1000 nM | 6250 nM | –
Cn1cncc1C(O)(c1ccc([N+](=O)[O-])cc1)c1cc2cc([N+](=O)[O-])cc(-c3ccccc3)c2o1 (racemic) | 30 nM | 547 nM | –
Cn1cncc1C(O)(c1ccc(Cl)cc1)c1cc2cc([N+](=O)[O-])cc(-c3ccccc3)c2o1 (racemic) | 170 nM | 1880 nM | –
Cn1cncc1C(O)(c1ccc(Cl)cc1)c1cc2cc(C(=O)NN3CCOCC3)cc(-c3ccccc3)c2o1 (racemic) | – | 73.6 nM | –
Cn1cncc1[C@](N)(c1ccc(C#N)cc1)c1cc2cc([N+](=O)[O-])cc(-c3ccccc3)c2o1 | 49 nM | 206 nM | –
COc1cccc(-c2cc([N+](=O)[O-])cc3cc(C(O)(c4ccc(C#N)cc4)c4cncn4C)oc23)c1 (racemic) | 8.5 nM | 38.8 nM | –
COc1ccc(C(O)(c2cc3cc([N+](=O)[O-])cc(-c4ccccc4)c3o2)c2cncn2C)cc1 (racemic) | 250 nM | 4970 nM | –
COc1cccc(-c2cc(CN(C)C)cc3cc(C(O)(c4ccc(C#N)cc4)c4cncn4C)oc23)c1 (racemic) | 11 nM | 142 nM | –
Cn1cncc1C(O)(c1ccc(C#N)cc1)c1cc2cc([N+](=O)[O-])cc(-c3ccccc3)c2o1 (racemic) | 6.4 nM | 1480 nM | –
Cc1cccc(-c2cc([N+](=O)[O-])cc3cc(C(O)(c4ccc(C#N)cc4)c4cncn4C)oc23)c1 (racemic) | 11 nM | 23.2 nM | –
Cn1cncc1C(O)(c1ccc(I)cc1)c1cc2cc([N+](=O)[O-])cc(-c3ccccc3)c2o1 (racemic) | 360 nM | > 10000 nM | –
Cn1cncc1C(O)(c1ccc(Br)cc1)c1cc2cc([N+](=O)[O-])cc(-c3ccccc3)c2o1 (racemic) | 360 nM | 1480 nM | –
Cn1cncc1C(O)(c1ccc(C#N)cc1)c1cc2cc([N+](=O)[O-])cc(-c3ccc(F)cc3)c2o1 (racemic) | 7.2 nM | 158 nM | –
Cn1cncc1C(O)(c1ccc(C#N)cc1)c1cc2cc([N+](=O)[O-])cc(-c3cccc(C#N)c3)c2o1 (racemic) | – | 22.9 nM | –

Further compounds by falling IC50 [1], results first:

IC50 [1] | Compound | IC50 (QG-56 [2]) | also measured
6.3 nM | Cn1cncc1C(O)(c1ccc(C#N)cc1)c1cc2cc([N+](=O)[O-])cc(-c3cccc(F)c3)c2o1 (racemic) | 145 nM | –
4 nM | COc1ccc(-c2cc([N+](=O)[O-])cc3cc(C(O)(c4ccc(C#N)cc4)c4cncn4C)oc23)cc1 (racemic) | 36 nM | –
3.4 nM | Cn1cncc1C(O)(c1ccc(C#N)cc1)c1cc2cc([N+](=O)[O-])cc(-c3ccc(C#N)cc3)c2o1 (racemic) | 32.6 nM | –
3.3 nM | Cn1cncc1C(O)(c1ccc(C#N)cc1)c1cc2cc([N+](=O)[O-])cc(-c3ccccc3F)c2o1 (racemic) | 89.5 nM | –
3.2 nM | COC(=O)c1cc(-c2cccc(OC)c2)c2oc(C(O)(c3ccc(C#N)cc3)c3cncn3C)cc2c1 (racemic) | 36.3 nM | –
2.6 nM | COc1cccc(-c2cc(C(=O)NN3CCOCC3)cc3cc(C(O)(c4ccc(C#N)cc4)c4cncn4C)oc23)c1 (racemic) | – | –
2.4 nM | Cn1cncc1C(O)(c1ccc(C#N)cc1)c1cc2cc(C#N)cc(-c3ccccc3)c2o1 (racemic) | 14.5 nM | –
2 nM | COc1cccc(-c2cc(C=O)cc3cc(C(O)(c4ccc(C#N)cc4)c4cncn4C)oc23)c1 (racemic) | 15.2 nM | –
1.5 nM | Cn1cncc1[C@@](N)(c1ccc(C#N)cc1)c1cc2cc([N+](=O)[O-])cc(-c3ccccc3)c2o1 | 5.9 nM | –
1.2 nM | COc1cccc(-c2cc(C#N)cc3cc([C@](N)(c4ccc(C#N)cc4)c4cncn4C)oc23)c1 | 1.5 nM | –
1.1 nM | Cn1cncc1[C@@](N)(c1ccc(C#N)cc1)c1cc2cc(C#N)cc(-c3cccc(F)c3)c2o1 | 2 nM | AUC(0-t) at 24 h [3]: 15400 ng·h/mL; half-life [4]: 1.2 h; Cmax [5]: 1570 ng/mL; AUC(0-t) at 24 h [6]: 10200 ng·h/mL; CL/F [7]: 40.8 mL/min/kg; half-life [8]: 2.4 h; bioavailability [9]: 66%; AUC(0-t) at 24 h [10]: 31300 ng·h/mL; CL/F [11]: 41 mL/min/kg; half-life [12]: 12.3 h; bioavailability [13]: 51%; Activity (QG-56 [14]): Non-toxic; Activity (QG-56 [15]): Not toxic; Cmax [16]: 5010 ng/mL
1 nM | COc1cccc(-c2cc(CO)cc3cc(C(O)(c4ccc(C#N)cc4)c4cncn4C)oc23)c1 (racemic) | 16.8 nM | –
0.9 nM | COc1cccc(-c2cc(C(N)=O)cc3cc(C(O)(c4ccc(C#N)cc4)c4cncn4C)oc23)c1 (racemic) | 8.2 nM | –
0.8 nM | COc1cccc(-c2cc([N+](=O)[O-])cc3cc([C@](N)(c4ccc(C#N)cc4)c4cncn4C)oc23)c1 | 1.1 nM | –
0.7 nM | Cn1cncc1[C@@](N)(c1ccc(C#N)cc1)c1cc2cc(C#N)cc(-c3cccc(C#N)c3)c2o1 | 2 nM | –
